From patent publication US11028058B2, “Heterocyclic compounds as adenosine antagonists” (NUVATION BIO INC., priority 2017, dated 2021) come the findings set out here.

The target of assay [1] is T1, HEK-293 cells expressing human recombinant adenosine A2A receptor (Homo sapiens (Human), UniProt P29274). In words: cAMP assay, Assay 1 (HTRF kit). Format: cell-based. The conditions noted are these: HEK293, 100 nM, read-out: A2a cAMP (% inh @ 100 nM). As to the method:
(§1) The functional activity of compounds was tested using one of the two assays to detect the present of cAMP. Activation of G-protein coupled receptors (such as A2A) results in activation of adenylcyclase which converts ATP into cAMP which is used as a downstream signaling molecule. Therefore, molecules which act as GPCR (or specifically A2A receptor) antagonists cause a decrease in intracellular cAMP concentration.
(§2) Both assays used HEK-293 cells expressing human recombinant adenosine A2A receptor were grown prior to the test in media without antibiotic.
12 μL of cells were mixed with 6 μL of the test compound at increasing concentrations and then incubated for 10 min. Thereafter 6 μL of the reference agonist was added at a final concentration corresponding to the historical EC80. The plates were then incubated for 30 min at room temperature. After addition of the lysis buffer and 1 hour incubation, cAMP concentrations were estimated, according to the manufacturer specification, with the HTRF® kit.
On the technique in general: Cyclic AMP is a second messenger, typically raised through Gs and lowered through Gi signalling.

The target of the next assay is adenosine A2A receptor (Homo sapiens (Human), UniProt P29274). The assay is described as follows: A2A adenosine receptor radioligand binding competition assay (filter plates). As to the method: Binding of selected compounds to the adenosine A2A, A1, A2B, and A3 receptors was tested using a binding competition assay.
The general protocol for the radioligand binding competition assay was as follows. Competition binding was performed in duplicate in the wells of a 96 well plate (Master Block, Greiner, 786201) containing binding buffer (optimized for each receptor), membrane extracts (amount of protein/well optimized for each receptor), radiotracer (final concentration optimized for each receptor), and test compound. Nonspecific binding was determined by co-incubation with 200-fold excess of cold competitor. The samples were incubated in a final volume of 0.1 mL at 25° C. for 60 minutes and then filtered over filter plates. Filters were washed six times with 0.5 mL of ice-cold washing buffer (optimized for each receptor) and 50 μL of Microscint 20 (Packard) were added on each filter. The filter plates were sealed, incubated 15 min on an orbital shaker and scintillation counted with a TopCount for 30 sec/filter.
(§3) For the A2A adenosine receptor radioligand binding assay, the following modifications were made to the general protocol. GF/C filters (Perkin Elmer, 6005174), presoaked in 0.01% Brij for 2 h at room temperature were used. Filters were washed six times with 0.5 mL of ice-cold washing buffer (50 mM Tris pH 7.4) and 50 μL of Microscint 20 (Packard) was added in each well. The plates were then incubated for 15 min on an orbital shaker and then counted with a TopCount™ for 1 min/well. Another radioligand binding assay was used to evaluate the binding affinity for the adenosine A2A receptor assay was performed in duplicate in the wells of a 384 plate. Assay buffer contained DPBS 500 mM, MgCl2 0.1 mM, and 1% DMSO. Membrane-bead suspension was prepared by mixing 25.98 μL of human adenosine A2A membrane preparation (Perkin Elmer, RBHA2AM400UA) at 33.4 μg/mL, 28 μL of ADA at 20 μg/mL, and 932 μL of SPA beads at 3.33 mg/mL) and incubated the mixture for 20 min at room temperature. Mixed 20 μL of radiotracer (^3H-SCH 58261) at 15 nM to each well containing test articles at various concentrations and centrifuge the plate at 1000 rpm for 1 minute. Added 30 μL of the membraine-bead suspension to each well. Sealed the plates and incubated for 1 hr at room temperature with vigorous mixing on a plate mixer. Plates were read on Microbeta^2 (Perkin Elmer, 2450-0010).

Assay [2] has as its target human adenosine A2A membrane preparation (Homo sapiens (Human), UniProt P29274). In words: Adenosine A2A receptor radioligand binding assay (SPA beads, 3H-SCH 58261, 384 plate). The conditions noted are these: for inhibition at 0.01 µM: read-out: A2a binding % inh @ 10 nM; for inhibition at 0.1 µM: read-out: A2a binding % inh @ 100 nM; for inhibition at 1 µM: read-out: A2a binding % inh @ 1000 nM; for inhibition at 0.001 µM: read-out: A2a binding % inh @ 1 nM; for IC50: Table B1-2. As to the method: as §3

The target in assay [3] is T1, HEK-293 cells expressing human recombinant adenosine A2A receptor. In words: cAMP assay, Assay 2 (Eu-cAMP tracer / ULight-anti-cAMP). The conditions noted are these: Assay 2; for inhibition at 0.1 µM: HEK293, 100 nM, read-out: A2a cAMP % inh @ 100 nM. Format: cell-based. As to the method:
as §1, §2
Assay 2 (Table B2-2): 100 nL of test articles at 100× of final concentration were transferred to assay plate by Echo. Cells were washed twice with 5 mL of PBS […]. After aspirating the PBS and adding 1.5 mL versine, cells were incubated at 37° C. for 2-5 min. After centrifugation, 4 mL of medium was added and adjusted cell density to 5,000 cells/well with Stimulation Buffer. 10 μL of cells were aliquoted to the assay plate, centrifuged at 1000 rpm for 1 minute, and incubated for 60 minutes at room temperature. 5 μL 4×Eu-cAMP tracer solution and 5 μL 4×Ulight™-anti-cAMP solution were added to assay plate, followed by centrifugation and 60-minute incubation at room temperature. Plates were read on EnVision.

The IC50 is the concentration at which inhibition is half-maximal.

Chain of adenosine A2A receptor (P29274 whole entry): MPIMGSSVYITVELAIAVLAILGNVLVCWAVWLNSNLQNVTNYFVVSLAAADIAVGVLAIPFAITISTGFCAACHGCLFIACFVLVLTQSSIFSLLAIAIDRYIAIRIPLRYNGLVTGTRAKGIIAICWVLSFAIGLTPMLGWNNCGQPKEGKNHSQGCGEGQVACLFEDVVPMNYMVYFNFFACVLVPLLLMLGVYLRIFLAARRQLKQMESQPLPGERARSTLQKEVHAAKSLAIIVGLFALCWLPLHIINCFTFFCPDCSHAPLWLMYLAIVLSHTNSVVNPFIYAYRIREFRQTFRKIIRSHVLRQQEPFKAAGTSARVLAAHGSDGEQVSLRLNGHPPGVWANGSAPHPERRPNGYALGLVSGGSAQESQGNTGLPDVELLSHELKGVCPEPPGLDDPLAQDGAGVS
T1 sequence (P29274 whole entry): as above
Chain of human adenosine A2A membrane preparation (P29274 whole entry): as above

Take `Cc1nc2cc(-c3ncc(N)nc3-c3ccccc3)ccc2[nH]1` [1.9, 5-(2-methyl-1H-benzo[d]imidazol-5-yl)-6-phenylpyrazin-2-amine]: the inhibition at 0.1 µM in assay [1] is 49%.

Consider `Nc1cnc(-c2cc(Cl)c(O)c(Cl)c2)c(-c2ccccc2)n1` [Compound 1.2, 4-(5-amino-3-phenylpyrazin-2-yl)-2,6-dichlorophenol], for which the inhibition at 0.1 µM in assay [1] amounted to 100%. At adenosine A2A receptor, the “A2A radioligand binding competition assay % residual binding @ 100 nM” value is on record as “ND/ND/ND/62%”.

`CC(=O)Nc1cnc(-c2ccc(O)c(Cl)c2)c(-c2ccccc2)n1` [Compound 1.3, N-(5-(3-chloro-4-hydroxyphenyl)-6-phenylpyrazin-2-yl)acetamide]: in assay [1], the inhibition at 0.1 µM came out at 100%. The “A2A radioligand binding competition assay % residual binding @ 100 nM” value on adenosine A2A receptor is “ND/ND/ND/57%”.

Turning to `N#Cc1nc(-c2ccc3ncccc3c2)c(-c2ccccc2)nc1N` [Compound 1.19, 3-amino-5-phenyl-6-(quinolin-6-yl)pyrazine-2-carbonitrile], in assay [1], the inhibition at 0.1 µM stood at 100%. For the same compound, the “A2A radioligand binding competition assay % residual binding @ 3000 nM” value at adenosine A2A receptor is on record as 4/ND/ND/ND %.

As to `Nc1cnc(-c2ccc3[nH]ccc3c2)c(-c2ccccc2)n1` [Compound No. 1.4, 5-(1H-indol-5-yl)-6-phenylpyrazin-2-amine], the inhibition at 0.1 µM in assay [1] amounted to 1.4%.

On to `CC(C)(C)c1cc(-c2ncc(N)nc2-c2ccccc2)ccc1O` [Compound No. 1.6, 4-(5-amino-3-phenylpyrazin-2-yl)-2-tert-butylphenol], for which the inhibition at 0.1 µM in assay [1] was determined as 47%.

Consider `Nc1cnc(-c2ccc(O)cc2)c(-c2ccccc2)n1` [Compound No. 1.7, 4-(5-amino-3-phenylpyrazin-2-yl)phenol], for which, in assay [1], the inhibition at 0.1 µM amounted to 100%. On adenosine A2A receptor, the “A2A radioligand binding competition assay % residual binding @ 300 nM” value is given as “ND/ND/100/ND %”.

For `Nc1cnc(-c2ccc(O)c(Cl)c2)c(-c2ccco2)n1` [Compound No. 1.8, 4-(5-amino-3-(furan-2-yl)pyrazin-2-yl)-2-chlorophenol], the inhibition at 0.1 µM in assay [1] amounted to 100%. Besides, the “A2A radioligand binding competition assay % residual binding @ 300 nM” value at adenosine A2A receptor is reported as “ND/ND/39/ND %”.

For the compound `Nc1cnc(-c2ccc3[nH]cnc3c2)c(-c2ccccc2)n1` [Compound No. 1.10, 5-(1H-benzo[d]imidazol-6-yl)-6-phenylpyrazin-2-amine], in assay [1], the inhibition at 0.1 µM is 100%. Besides, on adenosine A2A receptor, the “A2A radioligand binding competition assay % residual binding @ 100 nM” value was determined as 77%, the “A2A radioligand binding competition assay % residual binding @ 300 nM” value was found to be 70%, the “A2A radioligand binding competition assay % residual binding @ 1000 nM” value is recorded as 64% and the “A2A radioligand binding competition assay % residual binding @ 3000 nM” value worked out at 39%.

Regarding `N#Cc1cc(-c2ncc(N)nc2-c2ccccc2)ccc1O` [Compound No. 1.11, 5-(5-amino-3-phenylpyrazin-2-yl)-2-hydroxybenzonitrile], the inhibition at 0.1 µM in assay [1] was found to be 100%. On adenosine A2A receptor, the “A2A radioligand binding competition assay % residual binding @ 300 nM” value was “ND/ND/126/ND %”.

Consider `Nc1cnc(-c2ccc3ncccc3c2)c(-c2ccccc2)n1` [Compound No. 1.12, 6-phenyl-5-(quinolin-6-yl)pyrazin-2-amine], for which the inhibition at 0.1 µM in assay [1] came out at 94%. Besides, on adenosine A2A receptor, the “A2A radioligand binding competition assay % residual binding @ 300 nM” value is on record as 66%, the “A2A radioligand binding competition assay % residual binding @ 1000 nM” value came out at 12% and the “A2A radioligand binding competition assay % residual binding @ 3000 nM” value was 12%.

Turning to `Nc1cnc(-c2cc(Cl)c3[nH]cnc3c2)c(-c2ccccc2)n1` [Compound No. 1.13, 5-(7-chloro-1H-benzo[d]imidazol-5-yl)-6-phenylpyrazin-2-amine], in assay [1], the inhibition at 0.1 µM stood at 51%. At adenosine A2A receptor, the “A2A radioligand binding competition assay % residual binding @ 100 nM” value is 83%, the “A2A radioligand binding competition assay % residual binding @ 300 nM” value amounted to 69%, the “A2A radioligand binding competition assay % residual binding @ 1000 nM” value is given as 17% and the “A2A radioligand binding competition assay % residual binding @ 3000 nM” value is 18%.

Turning to `Nc1nc(-c2ccccc2)c(-c2ccc3ncccc3c2)nc1Br` [Compound No. 1.14, 3-bromo-6-phenyl-5-(quinolin-6-yl)pyrazin-2-amine], the inhibition at 0.1 µM in assay [1] came out at 100%. At adenosine A2A receptor, the “A2A radioligand binding competition assay % residual binding @ 100 nM” value is listed as 76%, the “A2A radioligand binding competition assay % residual binding @ 300 nM” value stood at 48%, the “A2A radioligand binding competition assay % residual binding @ 1000 nM” value worked out at 29% and the “A2A radioligand binding competition assay % residual binding @ 3000 nM” value stood at 12%.

On to `Nc1cnc(-c2ccc3ncccc3c2)c(-c2ccc(F)cc2)n1` [Compound No. 1.15, 6-(4-fluorophenyl)-5-(quinolin-6-yl)pyrazin-2-amine], for which the inhibition at 0.1 µM in assay [1] worked out at 0%. In addition, the “A2A radioligand binding competition assay % residual binding @ 3000 nM” value at adenosine A2A receptor is on record as 104/ND/ND/ND %.

For `Cc1ccn(-c2nc(N)cnc2-c2ccc3ncccc3c2)n1` [Compound No. 1.280], the inhibition at 3 µM in assay [2] (read-out: A2a binding % inh @ 3000 nM) was 75%. Besides, in assay [3], the inhibition at 0.1 µM was found to be 51%.

For `Cn1ccc(-c2nc(N)cnc2-c2ccc3ncccc3c2)n1` [Compound No. 1.285, 6-(1-methyl-1H-pyrazol-3-yl)-5-(quinolin-6-yl)pyrazin-2-amine], in assay [2], the inhibition at 0.01 µM turned out to be 56%, the inhibition at 0.1 µM stood at 76% and the inhibition at 1 µM amounted to 90%. The inhibition at 0.1 µM in assay [3] came out at 34%.

Consider `Cc1ccn(-c2nc(N)cnc2-c2ccc3ncsc3c2)n1` [Compound No. 1.286, 5-(benzo[d]thiazol-6-yl)-6-(3-methyl-1H-pyrazol-1-yl)pyrazin-2-amine], for which, in assay [2], the inhibition at 0.001 µM came out at 40%, the inhibition at 0.01 µM came out at 87%, the inhibition at 0.1 µM is 96% and the inhibition at 1 µM amounted to 86%. Besides, the inhibition at 0.1 µM in assay [3] came out at 20%.

Take `Cc1ccn(-c2nc(N)cnc2-c2ccc3[nH]ncc3c2)n1` [Compound No. 1.287, 5-(1H-indazol-5-yl)-6-(3-methyl-1H-pyrazol-1-yl)pyrazin-2-amine]: in assay [2], the inhibition at 0.001 µM was 42%, the inhibition at 0.01 µM came out at 77%, the inhibition at 0.1 µM stood at 90% and the inhibition at 1 µM was 80%. In addition, the inhibition at 0.1 µM in assay [3] worked out at 16%.

With `Cc1ncc(-c2nc(N)cnc2-c2ccc3ncccc3c2)s1` [Compound No. 1.288, 6-(2-methylthiazol-5-yl)-5-(quinolin-6-yl)pyrazin-2-amine], in assay [2], the IC50 was 55.5 nM, the inhibition at 0.001 µM was determined as 42%, the inhibition at 0.01 µM came out at 83% and the inhibition at 0.1 µM was 86%. Further, in assay [2], the inhibition at 1 µM was found to be 84%. In addition, in assay [3], the IC50 came out at 1050 nM.

As for `Cc1ccn(-c2nc(N)c(C#N)nc2-c2ccc3ncccc3c2)n1` [Compound No. 1.290, 3-amino-5-(3-methyl-1H-pyrazol-1-yl)-6-(quinolin-6-yl)pyrazine-2-carbonitrile], in assay [2], the IC50 amounted to 3.3 nM, the inhibition at 0.001 µM came out at 57%, the inhibition at 0.01 µM worked out at 85% and the inhibition at 0.1 µM was 89%. In assay [2], the inhibition at 1 µM is 89%. The 50% inhibitory concentration (IC50) in assay [3] was 35.7 nM.
